Data as given in ChEMBL document CHEMBL1201862, “PubChem BioAssay data set” (2004).
Active and inactive are the calls of the source.

Experiments:
[1] = molecular target: Glucose-6-phosphate 1-dehydrogenase (Homo sapiens, UniProt P11413); test: human G6PD enzyme inhibitors, dose response, selectivity assay for P. falciparum G6PD inhibitor project, biochemical, fluorescence (AID 504792); format: functional
[2] = molecular target: T1, High affinity choline transporter 1 (Homo sapiens, UniProt Q9GZV3); test: CHT inhibitors, dose response, cell-based, 5-point CRC, membrane potential dye (AID 504840); format: functional
T1 sequence (Q9GZV3 whole entry): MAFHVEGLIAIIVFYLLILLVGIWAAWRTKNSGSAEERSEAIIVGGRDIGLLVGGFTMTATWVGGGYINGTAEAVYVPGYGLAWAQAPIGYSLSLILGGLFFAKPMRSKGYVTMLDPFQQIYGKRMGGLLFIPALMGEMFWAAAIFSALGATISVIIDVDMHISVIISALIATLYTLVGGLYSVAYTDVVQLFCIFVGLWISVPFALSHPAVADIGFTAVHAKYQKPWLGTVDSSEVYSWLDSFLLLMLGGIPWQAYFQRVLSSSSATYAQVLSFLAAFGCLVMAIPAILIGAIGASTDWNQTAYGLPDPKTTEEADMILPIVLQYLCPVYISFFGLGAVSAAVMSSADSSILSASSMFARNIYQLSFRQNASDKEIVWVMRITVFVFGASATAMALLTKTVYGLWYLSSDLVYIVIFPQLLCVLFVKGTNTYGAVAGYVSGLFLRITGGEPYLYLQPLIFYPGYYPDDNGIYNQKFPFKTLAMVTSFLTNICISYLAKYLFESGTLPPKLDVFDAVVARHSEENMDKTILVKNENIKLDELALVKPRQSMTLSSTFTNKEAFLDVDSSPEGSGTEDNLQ

[3] = molecular target: T2, Polyadenylate-binding protein 1 (Homo sapiens, UniProt P11940); test: PABP1 MLLE–PAM2 binding inhibitor potency, dose response, biochemical, fluorescence polarization, FITC-PAM2 peptide (AID 602259); format: functional; details: read-out: IC50_Mean
T2 sequence (P11940 whole entry): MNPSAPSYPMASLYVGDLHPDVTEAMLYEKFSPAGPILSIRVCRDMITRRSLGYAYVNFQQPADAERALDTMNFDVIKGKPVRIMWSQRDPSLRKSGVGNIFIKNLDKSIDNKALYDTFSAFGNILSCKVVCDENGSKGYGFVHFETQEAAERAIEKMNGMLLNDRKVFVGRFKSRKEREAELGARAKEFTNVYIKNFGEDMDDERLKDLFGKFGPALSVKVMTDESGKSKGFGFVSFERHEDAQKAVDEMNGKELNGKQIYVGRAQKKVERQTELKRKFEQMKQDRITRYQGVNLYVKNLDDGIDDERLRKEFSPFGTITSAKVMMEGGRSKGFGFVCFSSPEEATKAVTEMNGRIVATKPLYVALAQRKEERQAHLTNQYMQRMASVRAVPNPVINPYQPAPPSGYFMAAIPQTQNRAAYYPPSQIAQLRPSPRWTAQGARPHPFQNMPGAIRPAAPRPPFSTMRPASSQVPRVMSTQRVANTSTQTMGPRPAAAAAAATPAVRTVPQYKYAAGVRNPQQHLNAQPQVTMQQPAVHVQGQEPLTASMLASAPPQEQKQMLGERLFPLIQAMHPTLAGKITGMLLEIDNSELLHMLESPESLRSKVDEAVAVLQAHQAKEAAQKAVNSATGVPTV

[4] = molecular target: T3, Apoptotic protease-activating factor 1 (Homo sapiens, UniProt O14727); format: functional
T3 sequence (O14727 whole entry): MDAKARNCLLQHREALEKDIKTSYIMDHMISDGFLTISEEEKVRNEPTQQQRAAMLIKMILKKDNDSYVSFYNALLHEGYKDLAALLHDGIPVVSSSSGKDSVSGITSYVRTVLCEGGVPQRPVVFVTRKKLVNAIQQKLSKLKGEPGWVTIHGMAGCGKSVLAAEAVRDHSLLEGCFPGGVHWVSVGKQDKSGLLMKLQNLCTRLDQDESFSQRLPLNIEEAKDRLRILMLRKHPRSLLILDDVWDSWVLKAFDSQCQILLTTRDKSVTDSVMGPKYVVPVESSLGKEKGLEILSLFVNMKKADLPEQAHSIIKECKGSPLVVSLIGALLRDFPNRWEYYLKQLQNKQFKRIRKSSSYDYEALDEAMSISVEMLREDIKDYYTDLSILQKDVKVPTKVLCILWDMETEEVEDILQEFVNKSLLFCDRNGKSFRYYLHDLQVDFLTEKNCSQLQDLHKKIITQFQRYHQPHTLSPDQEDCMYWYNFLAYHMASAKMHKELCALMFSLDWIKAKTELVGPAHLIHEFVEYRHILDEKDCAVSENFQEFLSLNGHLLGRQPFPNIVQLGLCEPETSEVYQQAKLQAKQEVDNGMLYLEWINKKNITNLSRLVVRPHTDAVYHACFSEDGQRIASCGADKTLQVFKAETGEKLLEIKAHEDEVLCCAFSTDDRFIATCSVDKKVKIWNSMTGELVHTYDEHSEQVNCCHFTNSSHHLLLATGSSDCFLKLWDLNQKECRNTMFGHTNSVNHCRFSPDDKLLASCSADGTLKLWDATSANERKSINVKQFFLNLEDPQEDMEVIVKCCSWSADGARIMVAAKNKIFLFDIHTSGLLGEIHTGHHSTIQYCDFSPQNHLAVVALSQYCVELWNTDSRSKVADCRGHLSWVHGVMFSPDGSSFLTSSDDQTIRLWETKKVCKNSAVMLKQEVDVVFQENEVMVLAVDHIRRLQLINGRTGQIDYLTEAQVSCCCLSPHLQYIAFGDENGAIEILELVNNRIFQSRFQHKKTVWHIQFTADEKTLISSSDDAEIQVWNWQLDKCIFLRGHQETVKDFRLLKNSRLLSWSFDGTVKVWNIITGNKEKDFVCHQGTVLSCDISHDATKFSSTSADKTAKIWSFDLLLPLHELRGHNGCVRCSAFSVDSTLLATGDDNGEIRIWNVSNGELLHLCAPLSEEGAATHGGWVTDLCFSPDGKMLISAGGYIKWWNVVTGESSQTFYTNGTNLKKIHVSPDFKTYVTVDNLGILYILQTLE

[5] = molecular target: T4, Replicative DNA helicase DnaB (Mycobacterium tuberculosis, UniProt P9WMR3); test: DnaB intein splicing inhibitors, dose response, biochemical, cell-free fluorescence (AID 449749); format: functional
T4 sequence (P9WMR3 whole entry): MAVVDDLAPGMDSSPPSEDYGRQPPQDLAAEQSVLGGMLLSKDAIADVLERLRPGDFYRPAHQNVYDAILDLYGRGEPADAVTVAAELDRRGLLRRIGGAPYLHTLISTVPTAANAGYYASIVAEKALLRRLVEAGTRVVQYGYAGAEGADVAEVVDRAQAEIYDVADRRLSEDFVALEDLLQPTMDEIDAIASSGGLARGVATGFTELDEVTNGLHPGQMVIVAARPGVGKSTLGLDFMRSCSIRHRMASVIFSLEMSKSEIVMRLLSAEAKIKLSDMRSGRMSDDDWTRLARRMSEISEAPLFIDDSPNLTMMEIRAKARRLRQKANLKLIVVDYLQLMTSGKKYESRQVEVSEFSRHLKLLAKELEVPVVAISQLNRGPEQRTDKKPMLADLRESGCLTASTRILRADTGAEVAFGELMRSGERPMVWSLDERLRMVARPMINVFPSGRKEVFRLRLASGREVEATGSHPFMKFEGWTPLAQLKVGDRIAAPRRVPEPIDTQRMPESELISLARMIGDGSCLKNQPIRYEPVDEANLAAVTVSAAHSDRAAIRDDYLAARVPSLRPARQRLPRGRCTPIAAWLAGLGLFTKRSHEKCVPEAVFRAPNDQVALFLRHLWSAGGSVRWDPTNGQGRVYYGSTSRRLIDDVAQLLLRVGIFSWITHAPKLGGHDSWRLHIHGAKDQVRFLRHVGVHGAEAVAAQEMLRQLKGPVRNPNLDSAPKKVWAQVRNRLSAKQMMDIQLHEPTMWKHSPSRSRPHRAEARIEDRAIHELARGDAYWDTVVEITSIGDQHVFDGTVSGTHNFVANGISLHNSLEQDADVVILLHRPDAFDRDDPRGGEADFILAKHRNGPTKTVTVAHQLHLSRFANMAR

[6] = molecular target: Induced myeloid leukemia cell differentiation protein Mcl-1 (Homo sapiens, UniProt Q07820); format: functional
Chain of Induced myeloid leukemia cell differentiation protein Mcl-1 (Q07820 whole entry): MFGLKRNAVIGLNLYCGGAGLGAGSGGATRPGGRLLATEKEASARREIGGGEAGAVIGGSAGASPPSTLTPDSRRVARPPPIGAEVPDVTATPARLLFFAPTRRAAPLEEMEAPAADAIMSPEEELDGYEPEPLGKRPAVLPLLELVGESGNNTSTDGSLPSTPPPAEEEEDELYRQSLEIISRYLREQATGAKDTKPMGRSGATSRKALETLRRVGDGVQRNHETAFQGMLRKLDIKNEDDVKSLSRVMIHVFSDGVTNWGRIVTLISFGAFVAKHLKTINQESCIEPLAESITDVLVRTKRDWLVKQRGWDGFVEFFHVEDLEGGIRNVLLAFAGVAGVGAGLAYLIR

Nonstructural protein 1 = Nonstructural protein 1 (Influenza A virus, UniProt Q194T2); format: functional, Influenza A virus (A/California/07/2009(H1N1))
Chain of Nonstructural protein 1 (Q194T2 whole entry): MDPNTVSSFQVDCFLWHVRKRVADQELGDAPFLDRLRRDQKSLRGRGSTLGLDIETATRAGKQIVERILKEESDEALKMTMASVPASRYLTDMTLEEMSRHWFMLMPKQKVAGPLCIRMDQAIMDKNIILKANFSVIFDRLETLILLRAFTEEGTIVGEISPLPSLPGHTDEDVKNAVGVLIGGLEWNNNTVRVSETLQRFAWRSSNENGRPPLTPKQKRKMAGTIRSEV

Protein RecA = molecular target: T5, Protein RecA (Mycobacterium tuberculosis, UniProt P9WHJ3); test: Fluorescence Cell-Free Homogeneous Dose Retest to Identify Inhibitors of RecA-Intein Splicing Activity. [Related pubchem assays (depositor defined):AID2097, AID2223, AID489010, AID492950]; format: functional
T5 sequence (P9WHJ3 whole entry): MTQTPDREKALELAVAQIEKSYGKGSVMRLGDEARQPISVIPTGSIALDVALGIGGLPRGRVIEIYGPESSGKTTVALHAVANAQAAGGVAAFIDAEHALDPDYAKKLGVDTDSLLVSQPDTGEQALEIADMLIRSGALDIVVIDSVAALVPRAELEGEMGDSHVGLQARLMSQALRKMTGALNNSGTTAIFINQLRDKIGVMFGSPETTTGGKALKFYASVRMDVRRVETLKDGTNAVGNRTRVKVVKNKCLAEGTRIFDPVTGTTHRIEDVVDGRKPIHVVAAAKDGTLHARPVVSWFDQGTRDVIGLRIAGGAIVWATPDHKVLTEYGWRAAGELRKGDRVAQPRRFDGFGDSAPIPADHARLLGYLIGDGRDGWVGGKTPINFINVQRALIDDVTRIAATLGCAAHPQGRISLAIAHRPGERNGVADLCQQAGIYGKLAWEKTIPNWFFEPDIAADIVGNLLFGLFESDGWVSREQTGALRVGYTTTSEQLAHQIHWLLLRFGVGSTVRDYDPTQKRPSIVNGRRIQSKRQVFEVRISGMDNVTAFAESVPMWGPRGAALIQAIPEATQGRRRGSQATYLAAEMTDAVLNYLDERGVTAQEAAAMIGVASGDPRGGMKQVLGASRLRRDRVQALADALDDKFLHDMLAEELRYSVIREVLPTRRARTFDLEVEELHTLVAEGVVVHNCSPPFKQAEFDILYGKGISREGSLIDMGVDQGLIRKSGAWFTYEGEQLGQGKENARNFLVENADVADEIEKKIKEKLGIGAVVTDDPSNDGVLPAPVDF

[7] = molecular target: T2, Polyadenylate-binding protein 1; test: PABP1 MLLE–PAM2 interaction inhibitors, dose response, miRNA deadenylation inhibitor project, biochemical, fluorescence polarization, Cy5-PAM2 peptide, secondary (AID 602260); format: functional; details: read-out: IC50_Mean
[8] = molecular target: T6, Nuclear receptor subfamily 0 group B member 1 (Homo sapiens, UniProt P51843); test: Luminescence-based cell-based high throughput dose response assay for inhibitors of the orphan nuclear receptor subfamily 0, group B, member 1 (DAX1; NR0B1). [Related pubchem assays (depositor defined):AID504766, AID504790]; format: functional
T6 sequence (P51843 whole entry): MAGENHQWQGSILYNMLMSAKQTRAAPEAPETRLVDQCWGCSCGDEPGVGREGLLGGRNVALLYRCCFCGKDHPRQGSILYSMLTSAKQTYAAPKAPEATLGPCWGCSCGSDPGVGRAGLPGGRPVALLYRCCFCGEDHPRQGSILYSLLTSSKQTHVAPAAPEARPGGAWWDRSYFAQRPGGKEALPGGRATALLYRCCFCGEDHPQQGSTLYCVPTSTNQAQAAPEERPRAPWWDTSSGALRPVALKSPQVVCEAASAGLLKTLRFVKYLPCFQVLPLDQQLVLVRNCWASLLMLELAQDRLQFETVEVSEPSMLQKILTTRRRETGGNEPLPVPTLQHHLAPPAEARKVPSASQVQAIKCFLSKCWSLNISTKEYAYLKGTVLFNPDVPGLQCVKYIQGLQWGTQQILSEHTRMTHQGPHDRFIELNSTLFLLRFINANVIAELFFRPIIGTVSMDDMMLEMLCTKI

HEK293 = test: cells; format: functional, cell-based; details: Homo sapiens
CHO = test: cytotoxicity in TLR9-MyD88 CHO cells, dose response, cytotoxicity control for TLR9-MyD88 binding inhibitor project, cell-based, luminescence (AID 588339); format: functional, hamster; details: Cricetulus griseus;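 also: CHO cells stably coexpressing TLR9 and MyD88 fusions from primary screen; compound exposure lasted 48 hours before viability readout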
[9] = molecular target: T7, Aryl hydrocarbon receptor (Homo sapiens, UniProt P35869); details: Potency;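 also: confirmatory quantitative high-throughput screen measuring activation of the AhR signaling pathway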
T7 sequence (P35869 whole entry): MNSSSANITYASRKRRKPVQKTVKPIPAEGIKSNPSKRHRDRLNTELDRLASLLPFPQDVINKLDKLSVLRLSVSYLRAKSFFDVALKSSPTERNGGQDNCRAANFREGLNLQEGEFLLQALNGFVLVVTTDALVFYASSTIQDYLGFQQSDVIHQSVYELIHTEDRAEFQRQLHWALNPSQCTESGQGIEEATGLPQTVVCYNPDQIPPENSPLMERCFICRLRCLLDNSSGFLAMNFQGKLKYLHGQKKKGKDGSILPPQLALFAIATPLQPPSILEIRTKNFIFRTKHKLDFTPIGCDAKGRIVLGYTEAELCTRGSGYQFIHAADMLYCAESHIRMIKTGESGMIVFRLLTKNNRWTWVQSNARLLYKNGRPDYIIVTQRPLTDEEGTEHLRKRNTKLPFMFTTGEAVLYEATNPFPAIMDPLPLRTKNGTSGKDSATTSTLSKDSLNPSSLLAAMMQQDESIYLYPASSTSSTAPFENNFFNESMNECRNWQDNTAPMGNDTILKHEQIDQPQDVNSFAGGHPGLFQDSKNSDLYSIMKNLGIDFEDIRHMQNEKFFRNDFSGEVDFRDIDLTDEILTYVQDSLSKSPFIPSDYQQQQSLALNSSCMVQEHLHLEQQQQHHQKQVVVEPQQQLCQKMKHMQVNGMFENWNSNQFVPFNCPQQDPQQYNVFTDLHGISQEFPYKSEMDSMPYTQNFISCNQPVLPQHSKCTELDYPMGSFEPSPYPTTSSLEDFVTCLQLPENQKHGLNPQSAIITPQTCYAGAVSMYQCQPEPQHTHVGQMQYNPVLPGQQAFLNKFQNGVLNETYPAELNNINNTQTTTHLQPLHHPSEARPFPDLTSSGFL

[10] = molecular target: Voltage-gated inwardly rectifying potassium channel KCNH2 (Homo sapiens, UniProt Q12809); details: Potency;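 also: confirmatory quantitative high-throughput screen measuring inhibition of hERG channel activity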
Chain of Voltage-gated inwardly rectifying potassium channel KCNH2 (Q12809 whole entry): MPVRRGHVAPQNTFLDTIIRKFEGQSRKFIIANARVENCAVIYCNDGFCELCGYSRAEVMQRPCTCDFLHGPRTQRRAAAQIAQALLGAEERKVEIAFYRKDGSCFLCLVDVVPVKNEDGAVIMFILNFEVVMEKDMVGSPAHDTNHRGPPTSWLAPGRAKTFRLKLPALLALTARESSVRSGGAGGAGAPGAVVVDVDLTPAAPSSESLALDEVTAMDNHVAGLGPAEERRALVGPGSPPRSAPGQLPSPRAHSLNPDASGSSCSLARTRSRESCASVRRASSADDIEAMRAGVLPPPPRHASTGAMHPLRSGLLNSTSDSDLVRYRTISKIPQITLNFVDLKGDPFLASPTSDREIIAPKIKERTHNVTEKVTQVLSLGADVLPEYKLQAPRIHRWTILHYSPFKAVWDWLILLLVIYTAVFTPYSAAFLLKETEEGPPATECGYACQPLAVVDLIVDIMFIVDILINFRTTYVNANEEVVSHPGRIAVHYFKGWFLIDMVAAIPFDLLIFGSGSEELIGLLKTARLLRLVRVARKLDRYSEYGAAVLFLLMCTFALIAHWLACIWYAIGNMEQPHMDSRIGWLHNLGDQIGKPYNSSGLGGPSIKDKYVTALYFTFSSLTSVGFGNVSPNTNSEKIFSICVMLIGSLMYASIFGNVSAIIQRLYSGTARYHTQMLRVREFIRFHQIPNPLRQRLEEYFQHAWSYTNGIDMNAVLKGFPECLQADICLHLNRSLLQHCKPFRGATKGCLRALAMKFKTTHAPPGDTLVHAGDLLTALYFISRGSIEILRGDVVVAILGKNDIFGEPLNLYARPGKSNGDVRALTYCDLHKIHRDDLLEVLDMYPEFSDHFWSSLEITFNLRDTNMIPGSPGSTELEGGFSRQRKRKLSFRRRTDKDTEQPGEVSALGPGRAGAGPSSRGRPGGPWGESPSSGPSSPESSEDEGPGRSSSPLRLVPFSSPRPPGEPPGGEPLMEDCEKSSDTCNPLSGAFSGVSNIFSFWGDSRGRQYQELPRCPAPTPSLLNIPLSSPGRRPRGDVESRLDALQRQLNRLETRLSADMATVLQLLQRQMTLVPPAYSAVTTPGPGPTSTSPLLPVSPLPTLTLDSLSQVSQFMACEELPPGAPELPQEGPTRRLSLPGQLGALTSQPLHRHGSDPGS

Chain of Glucose-6-phosphate 1-dehydrogenase (P11413 whole entry): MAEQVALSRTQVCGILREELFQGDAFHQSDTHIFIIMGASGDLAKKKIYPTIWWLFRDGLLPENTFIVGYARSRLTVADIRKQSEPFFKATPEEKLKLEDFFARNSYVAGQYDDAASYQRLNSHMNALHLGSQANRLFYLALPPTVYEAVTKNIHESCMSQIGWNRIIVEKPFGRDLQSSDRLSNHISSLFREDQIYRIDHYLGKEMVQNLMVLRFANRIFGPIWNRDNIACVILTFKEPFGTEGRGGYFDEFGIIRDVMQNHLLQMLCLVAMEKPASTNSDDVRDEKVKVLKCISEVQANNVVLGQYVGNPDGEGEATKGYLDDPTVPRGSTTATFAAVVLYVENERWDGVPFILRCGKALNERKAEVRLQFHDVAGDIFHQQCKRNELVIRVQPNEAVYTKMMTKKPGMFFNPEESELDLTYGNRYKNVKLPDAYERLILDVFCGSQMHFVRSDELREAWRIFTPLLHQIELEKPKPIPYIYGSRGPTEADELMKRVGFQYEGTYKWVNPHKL

## O=C1Nc2cc(C(=O)NCCCN3CCCC3)ccc2S/C1=C\c1ccccc1
[1]
  IC50: > 80 µM (inactive)
[2]
  IC50: 14.5 µM (active)

## Cc1ccc(NC2=C(NC(=O)c3ccccc3)C(=O)c3ccccc3C2=O)cc1Cl
[3]
  IC50: > 66 µM (inactive)
[1]
  IC50: > 80 µM (inactive)
[4]
  IC50: 17 µM (active)
[5]
  AC50: 3 µM (active)
[6]
  IC50: 3.38 µM (active)
Nonstructural protein 1
  IC50: 17.5 µM (active)
Protein RecA
  EC50: 2.52 µM (active)
[7]
  IC50: > 66 µM (inactive)

## Cc1cc(Cl)c2oc(C(=O)N(CCO)Cc3ccccc3)c(C)c2c1
[8]
  IC50: > 67.5 µM (inactive)
HEK293
  IC50: > 67.5 µM (inactive)

## CCOc1ccc(N(CC(=O)Nc2ccc(C)c(C)c2)S(C)(=O)=O)cc1
[8]
  IC50: > 67.5 µM (inactive)
HEK293
  IC50: > 67.5 µM (inactive)

## NNC(=O)c1oc2nc(-c3ccc(Cl)cc3)cc(-c3ccccc3)c2c1N
CHO
  IC50: > 49.7 µM (inactive)

## Nc1ccc(/N=N\c2ccccc2)c(N)c1
[9]
  AC50: 14.1 µM (inconclusive)
[10]
  AC50: 50.1 µM (inconclusive)

## CCOP(=S)(OCC)SCSC(C)(C)C [TERBUFOS]
[10]
  AC50: 39.8 µM (inconclusive)
